Measurements from patent US9161935B2 (TEVA PHARMACEUTICAL INDUSTRIES, LTD., priority 2012, dated 2015).

Assays:
[1] = tested on: Subjects with moderate to severe Crohn's disease (CD); assay: Phase IIb trial LAQ-CD-202 (Example 3); assay type: in vivo, human
Procedure: Capsules should be swallowed with a glass of water.
On Days 1 and 2, this dose is administered twice daily (BID) as a loading dose (total daily dose 0.5 mg). Dosing is once daily (QD) from Day 3 onwards.
On Days 1 and 2, this dose is administered BID as a loading dose (total daily dose 1 mg). Dosing is QD from Day 3 onwards.
Subjects with moderate to severe Crohn's disease (CD), as determined by a Crohn's Disease Activity Index (CDAI) score of 220-450 (inclusive).
Remission: subjects with CDAI <150 subjects not designated a Treatment Failure (TF).
Response 100: reduction of CDAI by at least 100 points compared to Baseline in subjects not designated a Treatment Failure (TF). Any subject with Remission is also considered to have achieved Response 100.
Response 70: reduction of CDAI by at least 70 points compared to Baseline, in subjects not designated a TF.
(§1) IBDQ Response: An increase from baseline in total IBDQ score of ≧16 points.
(§2) IBDQ Remission: A total IBDQ score of >170 points.
Treatment duration is 8 weeks. Scheduled in-clinic visits are conducted at Screening, Baseline (Week 0), and at Weeks 1, 2, 4, 6, and 8. Unscheduled visits for safety or for any other reason may be conducted at any time during the study
A loading dose regimen of the study drug is given during the first 2 days of treatment (Day 1 [Baseline] and Day 2). The first loading dose of the study drug is administered at the site. The loading dose doubles the intended dose for the first 2 days and is administered BID with 12-hour intervals between dosing. Thereafter, starting on Day 3, the dosing regimen consists of the intended dose QD.
During the study period the CDAI score is assessed in addition to routine safety. Subjects are required to maintain CDAI diaries for each day of the Screening period and, if randomized, on each day of the treatment period. The scores obtained from the 7 consecutive diaries completed prior to the Baseline visit and to each of Weeks 1, 2, 4, 6, and 8 contribute to a total CDAI score at each of these time points.
The primary efficacy endpoint is the proportion of subjects achieving Remission (CDAI <150) at Week 8 with subjects not designated a Treatment Failure (TF).
Secondary Efficacy Endpoints: • Proportion of subjects achieving Response 70 at Week 8. • Proportion of subjects achieving Response 100 at Week 8. • Mean change in total IBDQ score from Baseline to Week 8. • Proportion of subjects with an IBDQ Response at Week 8. • Proportion of subjects with IBDQ Remission at Week 8.

[2] = tested on: Moderate to Severe Crohn's Disease Patients; assay: Phase III 52-week maintenance of remission study LAQ-CD-303 (Example 4); assay type: in vivo, human
Procedure: A phase III, randomized, double-blind, placebo-controlled 52-week maintenance of remission study is conducted in active moderate to severe Crohn's disease patients.
Subjects with a Response during the 8-week induction studies LAQ-CD-202, LAQ-CD-301, or LAQ-CD-302 are re-randomized into this placebo-controlled maintenance study. Response in those induction studies was defined as a Crohn's Disease Activity Index (CDAI) reduction of at least 70 points from Baseline and CDAI <220 at Week 8 of the induction study in the absence of treatment failure (TF); in particular, this included subjects in Remission. In those 3 induction studies, TF was defined as follows: any new medication/treatment (including surgery) for Crohn's disease (CD) or dose increase not allowed by the protocol, throughout the study period; any early termination from the study was also regarded as TF. No de novo subjects are included in this study.
Remission: Subjects with CDAI <150 with no Treatment Failure (TF) during the course of the study.
Steroid Free Remission: Subjects achieving both Remission and steroid free.
as §1, §2
Treatment duration is 52 weeks. Scheduled in-clinic visits are conducted at Baseline (Week 0), and at Weeks 2, 4, 8, 12, 16, 20, 28, 36, 44, and 52. The Week 0 visit for this maintenance study is the same as the Week 8 visit in the induction study. Unscheduled visits for safety or for any other reason may be conducted at any time during the study.
Primary Efficacy Endpoint: • The primary endpoint is evaluated for subjects who belong to the PEC. • The proportion of subjects in Remission at Week 52.
Secondary Efficacy Endpoints: • The secondary endpoints are evaluated for subjects who belong to the PEC. • The proportion of subjects in Sustained Remission (defined as Remission at Week 36 and Week 52). • The proportion of subjects with Steroid-free Remission at Week 52. • Mean change in total IBDQ score from Baseline to Week 52. • Proportion of subjects with an IBDQ Response at Week 52. • Proportion of subjects with IBDQ Remission at Week 52.

CCN(C(=O)c1c(O)c2c(Cl)cccc2n(C)c1=O)c1ccccc1 [laquinimod]
effective: improve IBDQ score from Baseline by Week 8 ([1]; 0.25 mg/day) | induce IBDQ Response and/or IBDQ Remission by Week 8 ([1]; 0.25 mg/day) | induce Remission (CDAI <150) by Week 8 ([1]; 0.25 mg/day) | induce Response 70 and/or Response 100 by Week 8 ([1]; 0.25 mg/day) | improve IBDQ score from Baseline by Week 8 ([1]; 0.5 mg/day) | induce IBDQ Response and/or IBDQ Remission by Week 8 ([1]; 0.5 mg/day) | induce Remission (CDAI <150) by Week 8 ([1]; 0.5 mg/day) | induce Response 70 and/or Response 100 by Week 8 ([1]; 0.5 mg/day) | improve and/or maintain IBDQ score by Week 52 ([2]; 0.25 mg/day) | induce and/or maintain IBDQ Remission by Week 52 ([2]; 0.25 mg/day) | induce and/or maintain IBDQ Response by Week 52 ([2]; 0.25 mg/day) | induce and/or maintain Remission by Week 52 ([2]; 0.25 mg/day) | induce and/or maintain steroid-free Remission by Week 52 ([2]; 0.25 mg/day) | sustain Remission (Remission at Week 36 and Week 52) ([2]; 0.25 mg/day) | improve and/or maintain IBDQ score by Week 52 ([2]; 0.5 mg/day) | induce and/or maintain IBDQ Remission by Week 52 ([2]; 0.5 mg/day) | induce and/or maintain IBDQ Response by Week 52 ([2]; 0.5 mg/day) | induce and/or maintain Remission by Week 52 ([2]; 0.5 mg/day) | induce and/or maintain steroid-free Remission by Week 52 ([2]; 0.5 mg/day) | sustain Remission (Remission at Week 36 and Week 52) ([2]; 0.5 mg/day)
